Data on 6 compounds can be found in article PMC11678782, “The Antioxidant and Anti-Inflammatory Activities of the Methanolic Extract, Fractions, and Isolated Compounds from Eriosema montanum Baker f. (Fabaceae)” (Molecules, 2024).

Assay [1] deals with LPS-activated J774.A1 cells. On the set-up: method as in PMID 17637182. The note with it: cited from earlier work.
Assay [2] is described as follows: Ferric reducing antioxidant power (FRAP) assay. The note with it: relative to 200 µg/mL gallic acid, 700 nm. As to the method: (§1) Three in vitro antioxidant assays, namely, 2,2′-azinobis-(3-ethylbenzothiazoline-6-sulfonic acid (ABTS), 2,2′-diphenyl-1-picrylhydrazyl (DPPH), and ferric ion reducing antioxidant power (FRAP), were used to determine the antioxidant activity according to methods previously reported. Ascorbic acid (0 to 200 μg/mL) was used as positive control in these experiments, and Formula (1) below allowed us to evaluate the percentage of radical scavenging capacity. The inhibitory concentration (IC50) values were evaluated by plotting a nonlinear graph of percentage radical scavenging capacity versus logarithm of tested concentrations. Scavenging capacity (%) = [(A0 − A1)/A0] × 100(1) where A0 is absorbance of negative control, and A1 is absorbance of extract with ABTS^•+ radical cation.
The generally used and almost standard method for performing the FRAP test is that developed by Benzie and Strain [15]. Indeed, the antioxidant power is determined in a colorimetric reaction linked to redox in which an intense blue-colored ferroustripyridyltriazine (Fe^2+-TPTZ) complex is obtained via reduction at a low pH of ferrictripyridyltriazine (Fe^3+-TPTZ). The incubation of a quantity of 50 μL of EMME (1.56 to 200 μg/mL) or 200 μg/mL of gallic acid (Merck, Lethabong, South Africa) on a 96-well plate was carried out with 50 μL of 1% potassium ferricyanide (prepared in 0.2 M of sodium phosphate buffer, pH 6.6) for 30 min at 50 °C. Then, 50 μL of 10% trichloroacetic acid (TCA), 40 μL of distilled water, and 10 μL of 0.1% ferric chloride were added, respectively. The absorbance values were recorded on a blank (extract plus sodium phosphate buffer) at 700 nm on a SpectraMax iD3 multi-mode microplate reader (Molecular Devices, San Jose, CA, USA); the FRAP activity was indicated as inhibition percentage of 200 μg/mL of gallic acid.
(§2) The IC50 values were calculated for each biological experiment using the nonlinear regression curve of the % inhibitory activity versus the logarithm (log10) of the various tested concentrations using GraphPad Prism 6.0 software (GraphPad Software, Inc., San Diego, CA, USA). The data are shown as mean ⁱ SEM (standard error of the mean) values, and all biological experiments were conducted in triplicate (n = 3). The statistical analysis was conducted using GraphPad Prism 6.0 software (GraphPad Software, Inc., San Diego, CA, USA). One-way analysis of variance (ANOVA) was used to compare the data across the tested samples and/or controls, and Student–Newman–Keuls or Dunnett’s tests were then performed. A p-value of less than 0.05 indicated a significant difference in the results.

The test system of assay [3] is LPS-stimulated RAW 264.7 cells. Briefly: ROS production in LPS-stimulated RAW 264.7 cells (DCFH-DA). The class given is cell-based, murine. Conditions: 25, 50, 100 µg/mL, 2 h pre-treatment, 200 ng/mL LPS 24 h. Here is the method: For ROS production inhibition, on a black/clear bottom 96-well plate, RAW 264.7 cells were seeded at a density of 10,000 cells per well. The cells were then pre-treated with non-toxic quantities of EMME and genistin (5) at 25, 50, and 100 µg/mL for two hours and then exposed to 200 ng/mL of LPS for twenty-four hours under standard culture conditions. Thereafter, the cells were washed twice with PBS, followed by the addition of 100 µL of fresh FBS-free medium containing 10 µM of the fluorescent probe 2′,7′-dichlorodihydrofluorescein diacetate (DCFH-DA) (Sigma-Aldrich, Darmstadt, Germany). After 30 min of additional incubation under usual culture conditions, PBS was added to the plate in place of the fluorescent probe. The fluorescence of the cells was measured using a SpectraMax iD3 multi-mode microplate reader (Molecular Devices, San Jose, CA, USA) at 485 nm (excitation) and 535 nm (emission). The percentage of cells treated with DMSO 0.5% without LPS, known as the negative control, was used to express the intracellular ROS levels. Using an excitation/emission filter (480/535 nm) on a 40× objective, images were taken with a camera (Flexacam C1, Leica Microsystems, Wetzlar, Germany) attached to a fluorescence microscope (Leica Microsytems GmbH, Wetzlar, Germany).

Assay [4] is described as follows: DPPH radical scavenging assay. Conditions: 30 min, 517 nm. As to the method:
as §1
To be able to determine the DPPH^• scavenging capacity of EMME, we performed a serial dilution of 40 μL of the sample (1 mg/mL) with methanol on a 96-well microtiter plate, with 160 μL of solution of DPPH^• thereafter (25 μg/mL). The incubation at 25 °C in the dark was performed after 30 min, with the absorbance values measured at 517 nm on a SpectraMax iD3 multi-mode microplate against a blank (extract plus methanol without DPPH^•). […]. Methanol with DPPH^• served as the negative control. Using Formula (1), the DPPH scavenging capability was calculated at the measured concentrations above, and as previously enumerated, the IC50 values were also calculated, as indicated in the previously described procedure.
as §2
Background: DPPH is a stable violet radical that fades when it is reduced.

Assay [5] can be described thus: ABTS radical scavenging assay. The note with it: 5 min, 734 nm. As to the method: as §1
Specifically, 2.45 mM of potassium persulfate and 7 mM of ABTS solution were dissolved in methanol and combined to create the ABTS^•+ radical cation, which was stored at 25 °C for a minimum of 16 h. At 734 nm, the absorbance of the generated ABTS^•+ was measured using a SpectraMax iD3 multi-mode microplate reader (Molecular Devices, San Jose, CA, USA) and calibrated to 0.70 ± 0.02. After carefully diluting 40 μL of EMME (1 mg/mL) with methanol and adding 160 μL of (ABTS^•+) radical cation, the 96-well microtiter plate was left to sit at 25 °C in the dark for five minutes. Using a SpectraMax iD3 multi-mode microplate reader, the absorbance values were measured at 734 nm against the blank (extract plus methanol without ABTS^•+). A nonlinear curve representing the percentage of ABTS^•+ scavenging capacity vs. a logarithm of tested concentrations was then plotted to determine the inhibitory concentration (IC50) values.
as §2

The test system of assay [6] is LPS-stimulated RAW264.7 cells. On the set-up: method as in PMID 33202848, PMID 29471006. Conditions: cited from earlier work.
Another assay addresses T1, soybeans 15-LOX (Glycine max, UniProt P08170).
T1 construct: purchased Merck, Darmstadt, Germany
T1 sequence (P08170 1-839): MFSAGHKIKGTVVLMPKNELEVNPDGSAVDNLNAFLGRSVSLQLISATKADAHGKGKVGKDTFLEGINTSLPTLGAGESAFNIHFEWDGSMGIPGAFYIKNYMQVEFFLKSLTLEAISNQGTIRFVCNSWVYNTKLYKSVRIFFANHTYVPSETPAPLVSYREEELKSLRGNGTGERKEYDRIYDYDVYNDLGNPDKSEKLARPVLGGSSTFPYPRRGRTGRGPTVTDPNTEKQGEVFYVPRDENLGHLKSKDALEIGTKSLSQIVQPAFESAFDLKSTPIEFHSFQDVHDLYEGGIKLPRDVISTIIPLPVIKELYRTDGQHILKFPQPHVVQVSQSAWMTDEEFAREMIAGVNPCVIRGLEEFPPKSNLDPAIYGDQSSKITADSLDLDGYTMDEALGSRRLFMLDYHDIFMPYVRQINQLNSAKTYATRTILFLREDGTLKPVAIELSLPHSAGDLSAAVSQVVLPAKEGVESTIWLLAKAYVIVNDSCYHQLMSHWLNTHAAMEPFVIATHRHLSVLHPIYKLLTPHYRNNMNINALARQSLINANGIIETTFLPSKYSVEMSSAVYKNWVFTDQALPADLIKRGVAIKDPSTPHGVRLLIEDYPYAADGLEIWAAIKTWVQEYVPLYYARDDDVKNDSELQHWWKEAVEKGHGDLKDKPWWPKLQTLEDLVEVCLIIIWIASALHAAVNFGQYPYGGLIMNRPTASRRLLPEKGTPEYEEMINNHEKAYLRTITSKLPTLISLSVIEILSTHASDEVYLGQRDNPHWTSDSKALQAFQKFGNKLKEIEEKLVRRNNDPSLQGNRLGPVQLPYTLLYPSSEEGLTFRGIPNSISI
Briefly: 15-lipoxygenase enzyme inhibitory assay (FOX). The class given is biochemical, soybean. As to the method: The method developed by Pinto et al. was used to determine the effect of the tested samples on 15-LOX inhibitory activity, with slight modifications to the 96-well microtitre plate format. Using 20 µL of tested samples at varying concentrations (3.90 to 500 µg/mL), the soybeans 15-LOX (Merck, Darmstadt, Germany) (40 µL, 200 UI/mL) were incubated at 25 °C for 5 min. The plate was then incubated at 25 °C for 20 min in the dark; after, 40 µL of linoleic acid (final concentration, 140 μM) produced in Tris-HCl buffer (50 mM, pH 7.4) was added. A total of 100 µL of the FOX reagent—sulfuric acid (30 mM), xylenol orange (100 μM), and ferrous II) sulfate (100 μM) mixed in methanol/water (9:1)—was added to terminate the test. A SpectraMax iD3 multi-mode microplate reader (Molecular Devices, San Jose, CA, USA) was used to measure the absorbance at 560 nm following 30 min of incubation at 25 °C in the dark. Gallic acid (0.78 to 100 µg/mL) was employed as the usual inhibitor of 15-LOX, while DMSO at 5% (v/v) served as the negative control. With the exception of adding the substrate after the FOX reagent, the blanks were prepared exactly like the tested samples. Formula (2) below was used to compute the 15-LOX inhibitory activity. 15 LOX inhibitory activity (%) = 100 − [(A0 − A1) − (A2 − A1)] × 100(2) where A0 is absorbance of test samples, A1 is absorbance of blank, and A2 is absorbance of negative control (DMSO 5%).
as §2

In assay [7] the test system is LPS-stimulated RAW 264.7 cells. Put plainly: NO production inhibition in LPS-stimulated RAW 264.7 cells (Griess). The class given is cell-based, murine. The note with it: Mus musculus, RAW264.7; RAW 264.7, 2 h pre-treatment, 500 ng/mL LPS 24 h. Here is the method:
[…] in a humidified environment containing 5% CO2 and 95% air. For NO and ROS production inhibition assays, the cytotoxic effect of tested samples at 100 µg/mL after 24 h of exposure was initially measured on RAW 264.7 cells (10,000 cells per well) using the standard MTT assay. Then, for NO production inhibition assay, RAW 264.7 cells were pre-treated with tested samples at 100 µg/mL for 2 h followed by addition of culture medium containing 500 ng/mL of lipopolysaccharide (LPS) (Merck, Darmstadt, Germany). After 24 h of incubation under standard cell-culture conditions, NO released was measured in cell supernatants using the Griess reagent (Sigma Aldrich, Darmstadt, Germany), and a SpectraMax iD3 multi-mode microplate reader (Molecular Devices, San Jose, CA, USA) was used to capture the absorbance readings at 540 nm. The ability of each tested material to reduce nitric oxide synthesis by LPS-stimulated RAW 264.7 macrophages in comparison to the negative control (cells treated with DMSO at 0.5% and LPS without extract) was used to calculate the percentage of NO production inhibition.
as §2
In general terms: The Griess reaction detects nitrite, a stable product of nitric oxide.

Assay [8] relates to prostaglandins, iNOS, pro-inflammatory cytokines, ROS, NF-κB signaling pathway. On the set-up: method as in PMID 35140617, PMID 32115816. Conditions: down-regulation of prostaglandins; cited from earlier work.

≈ marks a conversion by molar mass, not a printed value.

What is called IC50 is the concentration that inhibits the measured activity by half.

As for `O=c1cc(-c2ccc(O)cc2)oc2cc(O[C@@H]3O[C@H](CO)[C@@H](O)[C@H](O)[C@H]3O[C@@H]3OC[C@](O)(CO)[C@H]3O)cc(O)c12` [Apiin], in assay [1], the “Inhibitory activity on NO production and iNOS expression” value is on record as “significant inhibitory activity”.

Turning to `O=C1O[C@H]([C@@H](O)CO)C(O)=C1O` [Ascorbic acid, reference compound], the “IC50 FRAP” value in [2] is 23.68 ± 2.89 µg/mL (≈ 134 µM). The “Inhibition of LPS-induced ROS production” value in assay [3] was “significantly inhibit”. Moreover, in assay [4], the “IC50 DPPH” value turned out to be 4.08 ± 1.04 µg/mL (≈ 23.2 µM). Besides, in assay [5], the “IC50 ABTS” value amounted to 1.28 ± 0.81 µg/mL (≈ 7.27 µM).

`C[C@@H]1O[C@@H](O[C@H]2C(=O)c3c(O)cc(O)cc3O[C@@H]2c2ccc(O)c(O)c2)[C@H](O)[C@H](O)[C@H]1O` [Astilbin]: the “Inhibition of IL-1β, IL-6, NO production and NF-κB-p65 expression” value in assay [6] is on record as “significantly inhibiting”.

For `O=C(O)c1cc(O)c(O)c(O)c1` [Gallic acid, reference compound], it took 145 µM to reach half-maximal inhibition on soybeans 15-LOX (IC50).

As for `O=c1c(O)c(-c2ccc(O)c(O)c2)oc2cc(O)cc(O)c12` [Quercetin, reference compound], in assay [7], the IC50 was determined as 8.93 ± 0.4 µg/mL (≈ 29.5 µM).

In the case of `O=c1c(-c2ccc(O)cc2)coc2cc(O)cc(O)c12` [genistein], the Anti-inflammatory activities result in assay [8] is reported as “strong anti-inflammatory activities”.
